≈ marks a conversion by molar mass, not a printed value.
Columns and labels:
[1] = physchem; conditions: n-octanol/phosphate buffer, pH 7.4
[2] = in vitro; conditions: human, hepatocytes
[3] = in vitro; conditions: rat, hepatocytes
[4] = physchem; conditions: buffer, pH 7
[5] = system: Burkholderia cepacia; assay: microbe, parasite or virus in culture
[6] = system: Pseudomonas aeruginosa; assay: microbe, parasite or virus in culture; conditions: ATCC 27853
[7] = system: Haemophilus influenzae; assay: microbe, parasite or virus in culture
[8] = system: Klebsiella pneumoniae; assay: microbe, parasite or virus in culture; conditions: T6474
[9] = in vivo; conditions: Wistar, rat, iv, 10 mg/kg
[10] = system: Serratia marcescens; assay: microbe, parasite or virus in culture
[11] = system: Klebsiella oxytoca; assay: microbe, parasite or virus in culture
[12] = in vivo; conditions: mouse, sc, 150 mg/kg
[13] = system: Enterobacter cloacae; assay: microbe, parasite or virus in culture
[14] = system: Klebsiella pneumoniae; assay: microbe, parasite or virus in culture
[15] = system: Moraxella catarrhalis; assay: microbe, parasite or virus in culture
[16] = system: Klebsiella aerogenes; assay: microbe, parasite or virus in culture
[17] = in vitro; conditions: rat, plasma
[18] = physchem; conditions: 5% mannitol/water, pH 8.4
[19] = system: Stenotrophomonas maltophilia; assay: microbe, parasite or virus in culture
[20] = physchem; conditions: buffer, pH 9
[21] = system: Pseudomonas aeruginosa; assay: microbe, parasite or virus in culture
[22] = system: Morganella morganii; assay: microbe, parasite or virus in culture
[23] = system: Escherichia coli; assay: microbe, parasite or virus in culture
[24] = in vitro; conditions: human, liver microsomes
[25] = physchem; conditions: buffer, pH 4
[26] = in vitro; conditions: rat, liver microsomes
[27] = system: Escherichia coli; assay: microbe, parasite or virus in culture; conditions: ATCC 25922
[28] = system: Proteus mirabilis; assay: microbe, parasite or virus in culture
[29] = system: Citrobacter freundii; assay: microbe, parasite or virus in culture
[30] = system: Acinetobacter baumannii; assay: microbe, parasite or virus in culture
[31] = system: T1, UDP-3-O-acyl-N-acetylglucosamine deacetylase (Escherichia coli K-12), P0A725 [C125S]; conditions: 25 uM
T1 sequence (whole entry): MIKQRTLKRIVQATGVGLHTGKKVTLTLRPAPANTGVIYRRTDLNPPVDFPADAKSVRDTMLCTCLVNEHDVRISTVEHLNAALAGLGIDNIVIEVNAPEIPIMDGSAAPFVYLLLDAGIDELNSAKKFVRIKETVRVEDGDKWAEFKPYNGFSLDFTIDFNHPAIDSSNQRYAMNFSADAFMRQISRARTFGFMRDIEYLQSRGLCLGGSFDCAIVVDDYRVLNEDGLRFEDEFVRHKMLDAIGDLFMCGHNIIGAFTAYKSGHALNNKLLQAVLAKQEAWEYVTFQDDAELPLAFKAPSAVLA

[32] = physchem
[33] = physchem; conditions: 5% mannitol/water, pH 4.5
[34] = system: T2, UDP-3-O-acyl-N-acetylglucosamine deacetylase (Pseudomonas aeruginosa (strain ATCC 15692 / PAO1 / 1C / PRS 101 / LMG12228)), P47205 [C40S]; conditions: 25 uM
T2 sequence (whole entry): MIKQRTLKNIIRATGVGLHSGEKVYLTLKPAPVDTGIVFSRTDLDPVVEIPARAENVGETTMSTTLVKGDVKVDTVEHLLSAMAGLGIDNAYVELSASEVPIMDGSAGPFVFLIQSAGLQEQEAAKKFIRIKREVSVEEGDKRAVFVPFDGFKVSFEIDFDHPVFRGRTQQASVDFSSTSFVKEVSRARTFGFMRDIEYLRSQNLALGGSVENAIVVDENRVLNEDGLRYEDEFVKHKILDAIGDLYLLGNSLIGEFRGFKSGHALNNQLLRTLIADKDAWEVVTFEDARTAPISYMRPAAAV

[35] = in vivo; conditions: mouse, sc, 50 mg/kg
[36] = physchem; conditions: 5% mannitol/water, pH 8.2
[37] = in vivo; conditions: Wistar, rat, iv, 50 mg/kg

| SMILES | logD [1] | hepatocyte CLint at 1 µM [2] [µL/min/1e6 cells] | hepatocyte CLint at 1 µM [3] [µL/min/1e6 cells] | solubility at 24 h [4] [mg/mL] | MIC90 [5] [mg/L] | MIC [6] [mg/L] | MIC90 [7] [mg/L] | MIC [8] [mg/L] | clearance at 24 h [9] [L/h/kg] | MIC90 [10] [mg/L] | MIC90 [11] [mg/L] | AUC(0-t) at 24 h [12] [µg·h/mL] | MIC90 [13] [mg/L] | MIC90 [14] [mg/L] | fraction unbound at 1 µM [17] | solubility at 24 h [20] [mg/mL] | microsomal CLint at 1 µM [24] [µL/min/mg] | solubility at 24 h [25] [mg/mL] | microsomal CLint at 1 µM [26] [µL/min/mg] | MIC [27] [mg/L] | further results |
| --- | --- | --- | --- | --- | --- | --- | --- | --- | --- | --- | --- | --- | --- | --- | --- | --- | --- | --- | --- | --- | --- |
| C[C@@](CCN1Cc2cc(C#CC#C[C@@H]3C[C@@]3(F)CO)cn2C1=O)(C(=O)NO)S(C)(=O)=O | 0.9 | < 2 | 13 | 0.248 (≈ 549 µM) | 2 (≈ 4.43 µM) | 0.5 (≈ 1.11 µM) | ≤ 0.03 | 0.5 (≈ 1.11 µM) | 0.312 | 1 (≈ 2.21 µM) | 4 (≈ 8.86 µM) | 236 | 4 (≈ 8.86 µM) | 4 (≈ 8.86 µM) | 0.017 | > 0.76 | < 10 | 0.22 (≈ 487 µM) | 12 | 0.25 (≈ 0.554 µM) | MIC90 [15]: > 16 mg/L; MIC90 [16]: 2 mg/L (≈ 4.43 µM); solubility [18]: 1 mg/mL (≈ 2210 µM); MIC90 [19]: > 16 mg/L; MIC90 [21]: 2 mg/L (≈ 4.43 µM); MIC90 [22]: 0.5 mg/L (≈ 1.11 µM); MIC90 [23]: 2 mg/L (≈ 4.43 µM); MIC90 [28]: 2 mg/L (≈ 4.43 µM); MIC90 [29]: 1 mg/L (≈ 2.21 µM); MIC90 [30]: > 16 mg/L |
| CN1CC(C#CC#Cc2cc3n(c2)C(=O)N(CC[C@](C)(C(=O)NO)S(C)(=O)=O)C3)C1 | 0.3 | < 2 | 8.6 | > 0.73 | 16 (≈ 37 µM) | 0.5 (≈ 1.16 µM) | ≤ 0.03 | 0.5 (≈ 1.16 µM) | 1.08 | 0.5 (≈ 1.16 µM) | 4 (≈ 9.25 µM) | 52.9 | 4 (≈ 9.25 µM) | 4 (≈ 9.25 µM) | 0.19 | > 0.73 | 48 | > 0.73 | 665 | 0.5 (≈ 1.16 µM) | deltaTm [31]: 8.9 K; pKa [32]: 8.4; solubility [33]: 30 mg/mL (≈ 69400 µM); MIC90 [15]: > 16 mg/L; MIC90 [16]: 1 mg/L (≈ 2.31 µM); MIC90 [19]: > 16 mg/L; MIC90 [21]: 2 mg/L (≈ 4.62 µM); MIC90 [22]: 0.5 mg/L (≈ 1.16 µM); MIC90 [23]: 1 mg/L (≈ 2.31 µM); deltaTm [34]: 9.9 K; MIC90 [28]: 1 mg/L (≈ 2.31 µM); MIC90 [29]: 1 mg/L (≈ 2.31 µM); MIC90 [30]: > 16 mg/L |
| C[C@@](CCN1Cc2cc(C#CC#C[C@H]3C[C@@H]3CO)cn2C1=O)(C(=O)NO)S(C)(=O)=O |  | 3.2 | 19 | 0.588 (≈ 1360 µM) |  | 0.25 (≈ 0.577 µM) |  | 0.25 (≈ 0.577 µM) | 1.02 |  |  |  |  |  | 0.008 | 0.628 (≈ 1450 µM) | < 10 | 0.6 (≈ 1380 µM) | < 10 | 0.12 (≈ 0.277 µM) | AUC(0-t) at 24 h [35]: 124 µg·h/mL |
| C[C@@](CCN1Cc2cc(C#CC#C[C@H]3C[C@@H]3[C@@H](O)CO)cn2C1=O)(C(=O)NO)S(C)(=O)=O | 0.5 | < 2 | 10.2 | > 0.78 | 8 (≈ 17.3 µM) | 1 (≈ 2.16 µM) | ≤ 0.03 | 1 (≈ 2.16 µM) | 0.186 | 0.5 (≈ 1.08 µM) | 4 (≈ 8.63 µM) | 347 | 4 (≈ 8.63 µM) | 4 (≈ 8.63 µM) | 0.018 | > 0.78 | < 10 | > 0.78 | < 10 | 0.5 (≈ 1.08 µM) | MIC90 [15]: > 16 mg/L; MIC90 [16]: 2 mg/L (≈ 4.31 µM); MIC90 [19]: > 16 mg/L; MIC90 [21]: 2 mg/L (≈ 4.31 µM); solubility [36]: 25 mg/mL (≈ 53900 µM); MIC90 [22]: 1 mg/L (≈ 2.16 µM); MIC90 [23]: 2 mg/L (≈ 4.31 µM); MIC90 [28]: 1 mg/L (≈ 2.16 µM); MIC90 [29]: 1 mg/L (≈ 2.16 µM); MIC90 [30]: > 16 mg/L |
| C[C@@](CCN1Cc2cc(C#CC#CC3CN(CCO)C3)cn2C1=O)(C(=O)NO)S(C)(=O)=O | 0.1 | < 2 | 7.3 | > 0.78 | 16 (≈ 34.6 µM) | 0.5 (≈ 1.08 µM) | ≤ 0.03 | 1 (≈ 2.16 µM) |  | 1 (≈ 2.16 µM) | 4 (≈ 8.65 µM) | 63.2 | 4 (≈ 8.65 µM) | 2 (≈ 4.32 µM) | 0.301 | > 0.78 | 14 | > 0.78 | 198 | 0.5 (≈ 1.08 µM) | deltaTm [31]: 9.7 K; pKa [32]: 7.9; solubility [33]: 30 mg/mL (≈ 64900 µM); clearance at 24 h [37]: 1.68 L/h/kg; MIC90 [15]: > 16 mg/L; MIC90 [16]: 1 mg/L (≈ 2.16 µM); MIC90 [19]: > 16 mg/L; MIC90 [21]: 2 mg/L (≈ 4.32 µM); MIC90 [22]: 1 mg/L (≈ 2.16 µM); MIC90 [23]: 1 mg/L (≈ 2.16 µM); deltaTm [34]: 11.2 K; MIC90 [28]: 1 mg/L (≈ 2.16 µM); MIC90 [29]: 1 mg/L (≈ 2.16 µM); MIC90 [30]: > 16 mg/L |
